Columns and labels:
[1] = target: T1, CaM (Bos taurus, UniProt P62157); assay: Competition pull-down with native ligand TRPV1-Ct15; format: binding, bovine; settings: H14 library; competitor peptide 200 µM; read-out: Surface mapping KD (apparent), competition
T1 construct: made in house; host or cells: E. coli BL21 (DE3)

[2] = target: T2, Gal-1 (Homo sapiens, UniProt P09382); assay: Competition pull-down with lactose; format: binding; settings: H14 library; lactose 10 mM; read-out: Surface mapping KD (apparent), competition
T2 construct: made in house; host or cells: E. coli BL21(DE3)
Method: Interactions between the H14 helical LSMs and the targets were abundant, but safe recognition of the native PPI interfaces on the targets is a criterion of druggability. To gain insight into the ability of the LSMs to detect orthosteric spots, we carried out pull-down assays in the presence of the native ligands (Table 2) of the targets (Fig. 5). For highlighting the effect of the competitor on the binding fingerprints, KD ratios and the LSM replacement percentages were calculated and are represented as heat maps (see ESI, Fig. S7 ^†). […] This could be explained by the glycan selective native recognition domain of the protein. We note that the replacement pattern for a single probe can, in theory, be complex. […] Moreover, a single probe can bind to both orthosteric and non-orthosteric spots, which limits overall displacement levels. To avoid overlooking interesting orthosteric weak binders, direct replacement levels were assessed (see ESI, Fig. S7 ^†).
Pull-down assay and data analysis
Pull-down assay. LSM sublibraries were screened separately as previously described.(2) Experiments were performed in the following buffers: (i) 20 mM pH 7.4 HEPES, 150 mM NaCl, 5 mM CaCl2 for CaM; (ii) 50 mM pH 7.4 HEPES, 150 mM NaCl, 1 mM TCEP, 1 mM CaCl2 for S100 proteins; (iii) 20 mM pH 7.4 HEPES, 150 mM NaCl, 1 mM TCEP for Gal-1 and (iv) 20 mM pH 7.4 HEPES, 150 mM NaCl for RecQ-WH. Assays were performed in paper filter spin cups (Thermo Scientific) with sample volumes of 100 µl. Hexahistidine-tagged proteins were immobilized on previously washed Co-NTA resin (TALON, Takara Bio USA, Inc., Mountain View, CA) in 64 µM final concentration. LSM sublibrary was added, in which each of the 64 library members were used at a concentration of 1 µM. Samples were incubated at room temperature for 30 min with shaking at 100 rpm. Then, samples were centrifuged at 1000 rpm for 2 min and washed with 100 µl pull-down buffer to remove unbound compounds.
The control experiments were performed using the same compounds and the resin but without the immobilized protein. In case of competitive assays, competitor peptides were added to LSM sublibrary samples in 200 µM final concentration. In the case of Gal-1, lactose (competitor) was used in a concentration of 10 mM. Experiments were performed at least twice. Mean […]
LC-MS methods and parameters. HPLC/ESI-MS analysis was used to characterize the samples from the pull-down assay. LC-MS analysis was performed with a Thermo Scientific Dionex UltiMate 3000 HPLC system interfaced to an LTQ ion trap mass spectrometer (Thermo Electron Corp., San Jose, CA, USA). Samples were injected onto an Aeris Widepore XB-C18 (250 x 4.6 mm) analytical HPLC column using gradient elution 5-80 % solution B during 25 minutes. For pull-down samples, eluent composition was 0.1% acetic acid in distilled water (Solution A) and 0.1% acetic acid in acetonitrile (solution B). Mass spectra were acquired in full scan mode from 200 to 2000 m/z range. For overlapping peaks, selective reaction monitoring (SRM) was […]
MS data analysis. Thermo Xcalibur 2.2 software was used for peak identification and integration. The majority of the foldameric fragments could be resolved independently via HPLC-MS/MS measurements based on molecular weight, MS fragmentation pattern and retention time. Peaks of some foldamers with β3-hIle or β3-hLeu in position R2 could not be resolved, these were integrated and averaged. In the processing method, each sample component was associated to a chromatographic peak based on previously identified mass (m/z) and retention time (ref (2) and Table S7-10). Using ICIS peak detection algorithm, the general detection and integration criteria were: smoothing points: 5, baseline window: 80, area noise factor: 5, peak noise factor: 10. Using these processing setups, all raw data files were reprocessed together and analyzed. Errors in peak identification during the automatic processing were corrected manually.
Calculation of the discussed parameters […]

[3] = target: T1, CaM; assay: Pull-down assay with immobilized protein and LSM libraries; format: binding, bovine; settings: H14 library; 1:2 stoichiometry assumed; read-out: Surface mapping KD (apparent)
Procedure, shortened: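 His-tagged protein immobilized on Co-NTA resin, equilibrated 30 min at room temperature with LSM sublibraries (64 members, […]), equimolar protein to total probe. CaM buffer: 20 mM HEPES pH 7.4, 150 mM NaCl, 5 mM CaCl2. Bound fractions from HPLC-MS loss of unbound probe versus protein-free resin control; Kd derived.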

[4] = target: T3, S100A4 (Homo sapiens, UniProt P26447); assay: as above; format: binding; settings: for Kd: H14 library, 1:1 binding assumed, read-out: Surface mapping KD (apparent)
T3 construct: made in house; host or cells: Escherichia coli BL21(DE3)
Procedure, shortened: (§1)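 Buffers were HEPES pH 7.4 with 150 mM NaCl, plus 1 mM TCEP and 1 mM CaCl2 (50 mM HEPES) for S100A4 and S100B, 1 mM TCEP for Gal-1, and no additive for RecQ-WH. Immobilized protein at 64 µM was equilibrated 30 min with the LSM sublibrary, and unbound probes were measured by LC-MS.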

[5] = target: T4, S100B (Homo sapiens, UniProt P04271); assay: as above; format: binding; settings: for Kd: H14 library, 1:1 binding assumed, read-out: Surface mapping KD (apparent)
T4 construct: made in house; host or cells: Escherichia coli BL21(DE3)
T4 sequence (P04271 1-92): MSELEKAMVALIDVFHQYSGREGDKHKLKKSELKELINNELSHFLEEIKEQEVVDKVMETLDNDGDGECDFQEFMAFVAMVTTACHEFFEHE
Procedure, shortened: as §1

[6] = target: T2, Gal-1; assay: as above; format: binding; settings: H14 library; 1:1 binding assumed; read-out: Surface mapping KD (apparent)
Procedure, shortened: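 His-tagged protein immobilized on Co-NTA resin (64 µM) in 20 mM HEPES pH 7.4, 150 mM NaCl, equilibrated 30 min at room temperature with foldamer LSM sublibraries at equimolar total concentration. Unbound fractions quantified by HPLC-MS versus protein-free resin control; apparent KD assumes 1:1 binding.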

[7] = H14 probes selected for validation

T2 sequence (P09382 whole entry): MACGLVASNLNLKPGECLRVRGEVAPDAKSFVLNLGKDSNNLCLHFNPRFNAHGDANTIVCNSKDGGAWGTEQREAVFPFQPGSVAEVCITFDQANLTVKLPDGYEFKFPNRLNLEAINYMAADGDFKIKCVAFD
T3 sequence (P26447 whole entry): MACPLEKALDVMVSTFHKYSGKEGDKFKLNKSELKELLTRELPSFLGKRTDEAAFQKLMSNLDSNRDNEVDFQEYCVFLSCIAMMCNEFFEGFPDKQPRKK

SMILES | Kd [1] | Kd [2] | Kd [3] | Kd [4] | Kd [5] | Kd [6] | Binding ([4]; H14 probes) | Affinity class of probe (high, medium, low) in pull-down [4, 7] | Binding ([5]; H14 probes) | Affinity class of probe (high, medium, low) in pull-down [5, 7]
CC(C)[C@@H](CC(=O)N[C@H]1CCCC[C@@H]1C(N)=O)NC(=O)[C@H]1CCCC[C@@H]1NC(=O)[C@H]1CCCC[C@@H]1NC(=O)C[C@H](CCC(=O)O)NC(=O)[C@H]1CCCC[C@@H]1N [H14 EV] | 492 µM | 300 µM | – | – | – | – | – | – | – | –
NCCCC[C@@H](CC(=O)N[C@H]1CCCC[C@@H]1C(=O)N[C@H]1CCCC[C@@H]1C(=O)N[C@@H](CC(=O)O)CC(=O)N[C@H]1CCCC[C@@H]1C(N)=O)NC(=O)[C@H]1CCCC[C@@H]1N [H14 KD] | 365 µM | 290 µM | – | – | – | – | – | – | – | –
NCCCC[C@@H](CC(=O)N[C@H]1CCCC[C@@H]1C(=O)N[C@H]1CCCC[C@@H]1C(=O)N[C@H](CC(=O)N[C@H]1CCCC[C@@H]1C(N)=O)Cc1ccccc1)NC(=O)[C@H]1CCCC[C@@H]1N [H14 KF] | 339 µM | – | 8 µM | 102 µM | 26 µM | – | – | – | – | –
NCCCC[C@@H](CC(=O)N[C@H]1CCCC[C@@H]1C(=O)N[C@H]1CCCC[C@@H]1C(=O)N[C@H](CC(=O)N[C@H]1CCCC[C@@H]1C(N)=O)Cc1c[nH]c2ccccc12)NC(=O)[C@H]1CCCC[C@@H]1N [H14 KW] | 398 µM | – | 3 µM | 184 µM | 28 µM | – | – | – | – | –
CSCC[C@@H](CC(=O)N[C@H]1CCCC[C@@H]1C(=O)N[C@H]1CCCC[C@@H]1C(=O)N[C@@H](CC(=O)O)CC(=O)N[C@H]1CCCC[C@@H]1C(N)=O)NC(=O)[C@H]1CCCC[C@@H]1N [H14 MD] | 278 µM | – | – | 423 µM | – | – | – | – | – | –
NC(=O)C[C@@H](CC(=O)N[C@H]1CCCC[C@@H]1C(=O)N[C@H]1CCCC[C@@H]1C(=O)N[C@@H](CC(=O)O)CC(=O)N[C@H]1CCCC[C@@H]1C(N)=O)NC(=O)[C@H]1CCCC[C@@H]1N [H14 ND] | 471 µM | 294 µM | 211 µM | – | – | 229 µM | – | – | – | –
CSCC[C@@H](CC(=O)N[C@H]1CCCC[C@@H]1C(N)=O)NC(=O)[C@H]1CCCC[C@@H]1NC(=O)[C@H]1CCCC[C@@H]1NC(=O)C[C@H](CC(N)=O)NC(=O)[C@H]1CCCC[C@@H]1N [H14 NM] | 452 µM | 406 µM | 50 µM | – | – | 350 µM | – | – | – | –
NC(=O)C[C@@H](CC(=O)N[C@H]1CCCC[C@@H]1C(=O)N[C@H]1CCCC[C@@H]1C(=O)N[C@@H](CO)CC(=O)N[C@H]1CCCC[C@@H]1C(N)=O)NC(=O)[C@H]1CCCC[C@@H]1N [H14 NS] | 279 µM | 427 µM | 184 µM | – | – | 310 µM | – | – | – | –
C[C@@H](O)[C@@H](CC(=O)N[C@H]1CCCC[C@@H]1C(N)=O)NC(=O)[C@H]1CCCC[C@@H]1NC(=O)[C@H]1CCCC[C@@H]1NC(=O)C[C@H](CC(N)=O)NC(=O)[C@H]1CCCC[C@@H]1N [H14 NT] | 336 µM | 500 µM | 187 µM | – | – | 350 µM | – | – | – | –
C[C@@H](CC(=O)N[C@H]1CCCC[C@@H]1C(N)=O)NC(=O)[C@H]1CCCC[C@@H]1NC(=O)[C@H]1CCCC[C@@H]1NC(=O)C[C@H](CCC(N)=O)NC(=O)[C@H]1CCCC[C@@H]1N [H14 QA] | 211 µM | 444 µM | 174 µM | – | – | 349 µM | – | – | – | –
NC(=O)CC[C@@H](CC(=O)N[C@H]1CCCC[C@@H]1C(=O)N[C@H]1CCCC[C@@H]1C(=O)N[C@@H](CCC(=O)O)CC(=O)N[C@H]1CCCC[C@@H]1C(N)=O)NC(=O)[C@H]1CCCC[C@@H]1N [H14 QE] | 246 µM | 380 µM | 221 µM | – | – | 295 µM | – | – | – | –
NC(=O)CC[C@@H](CC(=O)N[C@H]1CCCC[C@@H]1C(=O)N[C@H]1CCCC[C@@H]1C(=O)N[C@@H](CC(N)=O)CC(=O)N[C@H]1CCCC[C@@H]1C(N)=O)NC(=O)[C@H]1CCCC[C@@H]1N [H14 QN] | 304 µM | – | 177 µM | – | – | 257 µM | – | – | – | –
NC(=O)CC[C@@H](CC(=O)N[C@H]1CCCC[C@@H]1C(N)=O)NC(=O)[C@H]1CCCC[C@@H]1NC(=O)[C@H]1CCCC[C@@H]1NC(=O)C[C@H](CCC(N)=O)NC(=O)[C@H]1CCCC[C@@H]1N [H14 QQ] | 295 µM | 467 µM | 186 µM | – | – | 273 µM | – | – | – | –
C[C@@H](O)[C@@H](CC(=O)N[C@H]1CCCC[C@@H]1C(N)=O)NC(=O)[C@H]1CCCC[C@@H]1NC(=O)[C@H]1CCCC[C@@H]1NC(=O)C[C@H](CCC(N)=O)NC(=O)[C@H]1CCCC[C@@H]1N [H14 QT] | 266 µM | – | 211 µM | – | – | 325 µM | – | – | – | –
NC(=O)[C@H]1CCCC[C@@H]1NC(=O)C[C@H](CO)NC(=O)[C@H]1CCCC[C@@H]1NC(=O)[C@H]1CCCC[C@@H]1NC(=O)C[C@H](CO)NC(=O)[C@H]1CCCC[C@@H]1N [H14 SS] | 236 µM | – | 172 µM | – | – | 435 µM | – | – | – | –
C[C@@H](O)[C@@H](CC(=O)N[C@H]1CCCC[C@@H]1C(=O)N[C@H]1CCCC[C@@H]1C(=O)N[C@@H](CCCCN)CC(=O)N[C@H]1CCCC[C@@H]1C(N)=O)NC(=O)[C@H]1CCCC[C@@H]1N [H14 TK] | 485 µM | – | 88 µM | – | 172 µM | – | – | – | – | –
CSCC[C@@H](CC(=O)N[C@H]1CCCC[C@@H]1C(N)=O)NC(=O)[C@H]1CCCC[C@@H]1NC(=O)[C@H]1CCCC[C@@H]1NC(=O)C[C@@H](NC(=O)[C@H]1CCCC[C@@H]1N)[C@@H](C)O [H14 TM] | 113 µM | – | 46 µM | 13 µM | – | – | binds | high | does not | low
C[C@@H](O)[C@@H](CC(=O)N[C@H]1CCCC[C@@H]1C(=O)N[C@H]1CCCC[C@@H]1C(=O)N[C@@H](CCC(N)=O)CC(=O)N[C@H]1CCCC[C@@H]1C(N)=O)NC(=O)[C@H]1CCCC[C@@H]1N [H14 TQ] | 269 µM | – | 156 µM | – | – | 369 µM | – | – | – | –
NC(=O)C[C@@H](CC(=O)N[C@H]1CCCC[C@@H]1C(N)=O)NC(=O)[C@H]1CCCC[C@@H]1NC(=O)[C@H]1CCCC[C@@H]1NC(=O)C[C@H](Cc1c[nH]c2ccccc12)NC(=O)[C@H]1CCCC[C@@H]1N [H14 WN] | 294 µM | – | 14 µM | 224 µM | 168 µM | – | – | – | – | –

From article PMC8162404, “Proteomimetic surface fragments distinguish targets by function” (Chemical Science, 2020)
